ChEMBL document CHEMBL3085759, “Structure-activity relationship (SAR) and preliminary mode of action studies of 3-substituted benzylthioquinolinium iodide as anti-opportunistic infection agents” (Eur J Med Chem, 2013)

Legend:
[1] = test system: Mycobacterium intracellulare; test: Antimicrobial activity against Mycobacterium intracellulare ATCC 23068 by Alamar blue method; type: functional, organism-based
Staphylococcus aureus [2] = test: Antimicrobial activity against methicillin-resistant Staphylococcus aureus ATCC 33591 by Alamar blue method; type: functional, organism-based
Staphylococcus aureus [3] = test: Antimicrobial activity against Staphylococcus aureus ATCC 29213 by Alamar blue method; type: functional, organism-based; details: Staphylococcus aureus, ATCC 29213; for IC50: read-out: IC50
Nakaseomyces glabratus = test: Antimicrobial activity against Candida glabrata by Alamar blue method; type: functional, organism-based
Pichia kudriavzevii = test: Antimicrobial activity against Candida krusei ATCC 6258 by Alamar blue method; type: functional, organism-based
Vero = test: Cytotoxicity against african green monkey Vero cells at 10 ug/ml after 48 hrs by Neutral Red dye assay; type: cell-based; details: chlorocebus sabaeus
Aspergillus fumigatus = test: Antimicrobial activity against Aspergillus fumigatus ATCC 204305 by Alamar blue method; type: functional, organism-based
Cryptococcus neoformans = test: Antimicrobial activity against Cryptococcus neoformans ATCC 90113 by Alamar blue method; type: functional, organism-based
Candida albicans = test: Antimicrobial activity against Candida albicans ATCC 90028 by Alamar blue method; type: functional, organism-based

SMILES	IC50 [1] [µg/mL]	MBC [1] [µg/mL]	MIC [1] [µg/mL]	IC50 (Staphylococcus aureus [2]) [µg/mL]	MBC (Staphylococcus aureus [2]) [µg/mL]	MIC (Staphylococcus aureus [2]) [µg/mL]	MBC (Staphylococcus aureus [3]) [µg/mL]	MIC (Staphylococcus aureus [3]) [µg/mL]	IC50 (Staphylococcus aureus [3]) [µg/mL]	IC50 (Nakaseomyces glabratus) [µg/mL]	MFC (Nakaseomyces glabratus) [µg/mL]	MIC (Nakaseomyces glabratus) [µg/mL]	IC50 (Pichia kudriavzevii) [µg/mL]	MFC (Pichia kudriavzevii) [µg/mL]	MIC (Pichia kudriavzevii) [µg/mL]	Activity (Vero)	IC50 (Aspergillus fumigatus) [µg/mL]	MFC (Aspergillus fumigatus) [µg/mL]	MIC (Aspergillus fumigatus) [µg/mL]	MFC (Cryptococcus neoformans) [µg/mL]	also measured
Brc1ccccc1CSc1cc2ccccc2[n+](CCCCCC2CCCCC2)c1.[I-]	3.5	5	5	0.41	1.3	0.63	1.3	0.63	0.42	3.4	10	10	0.49	1.3	1.3	Non-toxic	9.6	20	20	2.5	MIC (Cryptococcus neoformans): 1.3 µg/mL; IC50 (Candida albicans): 4 µg/mL; MFC (Candida albicans): 10 µg/mL; MIC (Candida albicans): 10 µg/mL
Brc1cccc(CSc2cc3ccccc3[n+](CCCCCC3CCCCC3)c2)c1.[I-]	3.2	5	5	0.21	0.63	0.31	0.63	0.63	0.42	1.4	2.5	2.5	0.4	0.63	0.63	Non-toxic	4.8	10	10	1.3	IC50 (Cryptococcus neoformans): 0.56 µg/mL; MIC (Cryptococcus neoformans): 0.63 µg/mL; IC50 (Candida albicans): 2.6 µg/mL; MFC (Candida albicans): 5 µg/mL; MIC (Candida albicans): 5 µg/mL
Fc1ccccc1CSc1cc2ccccc2[n+](CCCCCC2CCCCC2)c1.[I-]	16	20	20	0.74	2.5	1.3	2.5	1.3	0.73	6.3	20	20	1.4	2.5	2.5	Non-toxic	6.5	20	20	1.3	IC50 (Cryptococcus neoformans): 0.63 µg/mL; MIC (Cryptococcus neoformans): 1.3 µg/mL; IC50 (Candida albicans): 2.7 µg/mL; MFC (Candida albicans): 5 µg/mL; MIC (Candida albicans): 5 µg/mL
COc1ccc(CSc2cc3ccccc3[n+](CCCCCC3CCCCC3)c2)cc1.[I-]	1.7	2.5	2.5	0.36	2.5	0.63	2.5	0.31	0.18	3	10	10	0.37	1.3	0.63	Non-toxic	5.4	10	10	0.63	IC50 (Cryptococcus neoformans): 0.18 µg/mL; MIC (Cryptococcus neoformans): 0.31 µg/mL; IC50 (Candida albicans): 1.2 µg/mL; MFC (Candida albicans): 5 µg/mL; MIC (Candida albicans): 5 µg/mL
